Assay results reported in patent US8835643B2, “Molecules, compositions, and methods for light absorption” (Empire Technology Development LLC, priority 2012, dated 2014).

What was measured:
[1] = Molar absorptivity in CHCl3 (UV-Vis spectrophotometer); type: physicochemical; conditions: for κ (molar absorptivity): CHCl3; for λmax (λCHCl3): in CHCl3
Protocol: The tests included observing the UVA-absorbing condition before and after light exposure and noting the molar absorption coefficient. […] The ultraviolet spectra of CHCl3 were measured using an UV-Vis spectrophotometer (U3010, Hitachi, Japan). All experiments were carried out at room temperature unless otherwise stated.

[2] = Critical wavelength method, evaluation as UVA protector; type: physicochemical
Text: The term “critical wavelength method” denotes a method of measuring of the breadth of UVA protection using the “critical wavelength”. To obtain this value, the absorbance of the molecule or material is integrated (summed) from 290 nm across the UV wavelengths until the sum reaches 90% of the total absorbance of the sunscreen in the UV region of 290-400 nm. The wavelength where the summed absorbance reaches 90% of the total absorbance is the “critical wavelength”. The critical wavelength can be defined by the following equation: […]
The critical wavelength method was then employed for evaluation of the molecule CDBA as a UVA protector. The results are shown in FIGS. 5A-5C, which are graphs depicting the data using the Critical Wavelength method to evaluate CDBA as a UVA protector. […] Its 90% value was 124.030. […] Given this, the λc was determined to be between 389-390 nm. Furthermore, the results can be summarized as follows: • After 6 minutes of irradiation of UVA radiation (356 nm or 357 nm), 100% of the composition was isomeric. • After 8 minutes of irradiation of visible light radiation (442 nm or 443 nm), 99% of the molecules were isomeric. • After 3 hours of daylight irradiation, more than 90% of the molecules were isomeric, trans.

[3] = Photoisomerization tests under UV, visible and natural light; type: physicochemical; conditions: for time of UV light irradiation to convert trans into cis form / time of visible light irradiation to reach the photostationary state of trans form: 400 W Hg lamp; for time of UV light irradiation to convert trans into cis form: 275-400 nm filter, room temperature; for time of visible light irradiation to reach the photostationary state of trans form: filter >400 nm; for time of natural light irradiation to reach the photostationary state of trans form: fluorescent lamps, about 500 lx
Protocol: Photoisomerization tests were carried out on compounds PyB (Formula XIV) and iQB (Formula XV), which were synthesized and characterized by MS, IR, ^1H NMR spectra.
The tests included observing the UVA-absorbing condition before and after light exposure and noting the molar absorption coefficient. The test also included determining the photo isomerization conditions under illumination of UVA, visible light and daylight. The compounds were irradiated with a 400 W high-pressure Hg lamp (LCE-9, Zhengzhou, China). A bandpass filter (λT=275˜400 nm) was used for UV light and a bandpass filter (λT>400 nm) was used for visible light. The light distance was 20 cm. For natural light irradiation, samples were irradiated with fluorescent lamps (21 W×2, luminous intensity about 500 lx), and the light distance was 120 cm. The ultraviolet spectra of CHCl3 were measured using an UV-Vis spectrophotometer (U3010, Hitachi, Japan). All experiments were carried out at room temperature unless otherwise stated.
It was estimated from the spectral change that trans-PyB and iQB were converted into the cis-PyB or iQB after 6 or 8 min (respectively) of UV light irradiation (FIGS. 3A and 4A); it took 8 min of visible light irradiation to reach the photostationary state of trans-PyB or iQB (FIGS. 3B and 4B) and 3.0 h of natural light irradiation to reach the photostationary state of trans-PyB or iQB (FIGS. 3C and 4C).

Protocol for back of the rats: Phototoxicity of various azo-compounds was examined.
The UV source for the in vivo testing involved a 400 W high-pressure mercury lamp (LCE-9, Zhengzhou, China) with a filter transmitting the wavelength between 320-380 nm. Four test sites (4 cm^2) were selected on the back of the rats. The sites were located between the breast and scapulae and lateral to the midline. The test product was applied at the amount of 20 ul/cm^2 (0.06 mg CDBA) and spread uniformly over one test site using a finger cot. The product was allowed to dry for 15 min before starting the UV exposure. On each test site, four squares (1 cm×1 cm) were defined, on an unprotected skin area of the rat dorsal and on a sunscreen-protected area. The skin was kept at a distance of 15 cm from the light source and the time of illumination was 5 hours on the test sites.

| SMILES | κ (molar absorptivity) ([1]; at 442 nm) [L/mol/cm] | κ (molar absorptivity) ([1]; at λmax) [L/mol/cm] | A (absorbance) ([1]; at λmax, CHCl3, C 0.01 mg/mL) | λmax (λCHCl3) [1] | time of UV light irradiation to convert trans into cis form [3] [min] | time of visible light irradiation to reach the photostationary state of trans form [3] [min] | time of natural light irradiation to reach the photostationary state of trans form [3] [h] | further results |
| --- | --- | --- | --- | --- | --- | --- | --- | --- |
| CCN(CC)CCCCOc1ccc(N=Nc2ccc(C(=O)OC3CCC4(C)C(=CCC5C4CCC4(C)C(C(C)CCCC(C)C)CCC54)C3)cc2)cc1 (centres unmarked) [CDBA, 4-cholesterocarbonyl-4′-(N,N-diethylaminebutyloxyl)azobenzene] | 3174 | 24726 | 0.335 | 357 (λmax) nm | – | – | – | A (absorbance) ([1]; at 442 nm, CHCl3, C 0.01 mg/mL): 0.043; integrated area ([2]; 290-389 (FIG. 5C)): 123.707; integrated area ([2]; 290-390 (FIG. 5B)): 125.025; 90% value of integrated area ([2]; 290 nm to 400 nm (FIG. 5A)): 124.030; integrated area ([2]; 290 nm to 400 nm (FIG. 5A)): 137.811; critical wavelength λc ([2]; wavelength where summed absorbance from 290 nm reaches 90% of the 290-400 nm total): 389-390 nm; protection of skin from UV irradiation (back of the rats; rat back, in liposome, 20 ul/cm2 (0.06 mg CDBA), 320-380 nm for 5 h, seen three days after): effectively protected skin from UV irradiation; adverse effect on skin (back of the rats; rat, in vivo): no adverse effect including allergy |
| CC(C)CCCC(C)C1CCC2C3CC=C4CC(OC(=O)c5ccc(N=Nc6ccc(OCCCC[n+]7ccccc7)cc6)cc5)CCC4(C)C3CCC12C.[Br-] (centres unmarked) [PyB] | 2227 | 14464 | – | 356 (λmax) nm | 6 | 8 | 3.0 | A (absorbance) ([1]; at 442 nm, CHCl3, C 0.03 mg/mL): 0.081; A (absorbance) ([1]; at λmax, CHCl3, C 0.03 mg/mL): 0.526 |
| COc1ccc(C(=O)CC(=O)c2ccc(C(C)(C)C)cc2)cc1 [avobenzone, reference compound] | – | 23870 | 0.770 | 358 (λmax) nm | – | – | – | κ (molar absorptivity) ([1]; at 320 nm): 10354 L/mol/cm; A (absorbance) ([1]; at 320 nm, CHCl3, C 0.01 mg/mL): 0.334; κ (molar absorptivity) ([1]; at 360 nm): 23715 L/mol/cm; A (absorbance) ([1]; at 360 nm, CHCl3, C 0.01 mg/mL): 0.765; κ (molar absorptivity) ([1]; at 400 nm): 2294 L/mol/cm; A (absorbance) ([1]; at 400 nm, CHCl3, C 0.01 mg/mL): 0.074 |
| CC(C)CCCC(C)C1CCC2C3CC=C4CC(OC(=O)c5ccc(N=Nc6ccc(OCCCC[n+]7ccc8ccccc8c7)cc6)cc5)CCC4(C)C3CCC12C.[Br-] (centres unmarked) [iQB] | – | 21176 | 0.242 | 357 (λmax) nm | 8 | 8 | 3.0 | – |
